Laboratory results from ChEMBL document CHEMBL1629631, “In vitro activities of various antifungal drugs against Aspergillus terreus: Global assessment using the methodology of the European committee on antimicrobial susceptibility testing” (2009).
In brackets after ≈: the same amount, converted by molar mass. Numbered stars: 1 amine (or outer) side, 2 acyl side, 3 side chain; on linkers, the order of the positions; unused ones are H or OH. Bridge positions count the residues as written; N and C are the ends. Square brackets hold non-standard residues; d marks the D form. Peptide text beside a SMILES is read from it. * marks the point of attachment. hTyr(3S-OH,4S-OH,3'-OSO3H) = N[C@H](C(=O)O)[C@H](O)[C@@H](O)c1ccc(O)c(OS(=O)(=O)O)c1; pTerphenylCO(4''-OnC5H11) = CCCCCOc1ccc(-c2ccc(-c3ccc(C(=O)*)cc3)cc2)cc1; Orn(4R-OH,5R-OH) = O=C([C@H](C[C@@H](O)[C@@H](O)N[*:3])N[*:1])[*:2]; hTyr(3S-OH,4S-OH) = N[C@H](C(=O)O)[C@H](O)[C@@H](O)c1ccc(O)cc1; Pro(3S-OH,4S-Me) = C[C@H]1CN[C@H](C(=O)O)[C@H]1O; X1 = CCCCCOc1ccc(-c2cc(-c3ccc(C(=O)*)cc3)no2)cc1; Gln(3R-OH) = NC(=O)C[C@@H](O)[C@H](N)C(=O)O; Hyp = O=C(O)[C@@H]1C[C@@H](O)CN1

Key:
[1] = test system: Aspergillus terreus; assay: Antimicrobial activity against Aspergillus terreus environmental isolate after 48 hrs by EUCAST test; type: functional
[2] = test system: Aspergillus terreus; assay: Antimicrobial activity against Aspergillus terreus clinical isolate after 48 hrs by EUCAST test; type: functional

Row | SMILES | MIC50 [1] [µg/mL] | MIC90 [1] [µg/mL] | MIC50 [2] [µg/mL] | MIC90 [2] [µg/mL]
1 | CCC(C)n1ncn(-c2ccc(N3CCN(c4ccc(OCC5COC(Cn6cncn6)(c6ccc(Cl)cc6Cl)O5)cc4)CC3)cc2)c1=O (stereo unspecified) [ITRACONAZOLE] | 0.125 (≈ 0.177 µM) | 0.5 (≈ 0.709 µM) | 0.125 (≈ 0.177 µM) | 0.5 (≈ 0.709 µM)
2 | C[C@@H](c1ncncc1F)[C@](O)(Cn1cncn1)c1ccc(F)cc1F [VORICONAZOLE] | 1 (≈ 2.86 µM) | 2 (≈ 5.73 µM) | 1 (≈ 2.86 µM) | 2 (≈ 5.73 µM)
3 | C[C@@H]1[C@H](O)[C@@H](C)/C=C/C=C/C=C/C=C/C=C/C=C/C=C/[C@H](O[C@@H]2O[C@H](C)[C@@H](O)[C@H](N)[C@@H]2O)C[C@@H]2O[C@](O)(C[C@@H](O)C[C@@H](O)[C@H](O)CC[C@@H](O)C[C@@H](O)CC(=O)O[C@H]1C)C[C@H](O)[C@H]2C(=O)O [AMPHOTERICIN B] | 2 (≈ 2.16 µM) | 2 (≈ 2.16 µM) | 2 (≈ 2.16 µM) | 2 (≈ 2.16 µM)
4 | CC[C@H](C)C[C@H](C)CCCCCCCCC(=O)N[C@H]1C[C@@H](O)[C@@H](NCCN)NC(=O)[C@@H]2[C@@H](O)CCN2C(=O)[C@H]([C@H](O)CCN)NC(=O)[C@H]([C@H](O)[C@@H](O)c2ccc(O)cc2)NC(=O)[C@@H]2C[C@@H](O)CN2C(=O)[C@H]([C@@H](C)O)NC1=O [CASPOFUNGIN] | 1 (≈ 0.915 µM) | 2 (≈ 1.83 µM) | 1 (≈ 0.915 µM) | 2 (≈ 1.83 µM)
5 | CC[C@@H]([C@H](C)O)n1ncn(-c2ccc(N3CCN(c4ccc(OC[C@@H]5CO[C@@](Cn6cncn6)(c6ccc(F)cc6F)C5)cc4)CC3)cc2)c1=O [POSACONAZOLE] | 0.12 (≈ 0.171 µM) | 0.12 (≈ 0.171 µM) | 0.12 (≈ 0.171 µM) | 0.12 (≈ 0.171 µM)
6 | CCCCCOc1ccc(-c2ccc(-c3ccc(C(=O)N[C@H]4C[C@@H](O)[C@@H](O)NC(=O)[C@@H]5[C@@H](O)[C@@H](C)CN5C(=O)[C@H]([C@@H](C)O)NC(=O)[C@H]([C@H](O)[C@@H](O)c5ccc(O)cc5)NC(=O)[C@@H]5C[C@@H](O)CN5C(=O)[C@H]([C@@H](C)O)NC4=O)cc3)cc2)cc1 [ANIDULAFUNGIN] ({pTerphenylCO(4''-OnC5H11)}-[Orn(4R-OH,5R-OH)]T[Hyp][hTyr(3S-OH,4S-OH)]T[Pro(3S-OH,4S-Me)]; lactam 1-C) | 0.015 (≈ 0.0132 µM) | 0.03 (≈ 0.0263 µM) | 0.015 (≈ 0.0132 µM) | 0.03 (≈ 0.0263 µM)

Further lines, results first:

Row | MIC50 [1] [µg/mL] | MIC90 [1] [µg/mL] | MIC50 [2] [µg/mL] | MIC90 [2] [µg/mL] | SMILES
7 | 0.015 (≈ 0.0118 µM) | 0.03 (≈ 0.0236 µM) | 0.015 (≈ 0.0118 µM) | 0.03 (≈ 0.0236 µM) | CCCCCOc1ccc(-c2cc(-c3ccc(C(=O)N[C@H]4C[C@@H](O)[C@@H](O)NC(=O)[C@@H]5[C@@H](O)[C@@H](C)CN5C(=O)[C@H]([C@H](O)CC(N)=O)NC(=O)[C@H]([C@H](O)[C@@H](O)c5ccc(O)c(OS(=O)(=O)O)c5)NC(=O)[C@@H]5C[C@@H](O)CN5C(=O)[C@H]([C@@H](C)O)NC4=O)cc3)no2)cc1 [MICAFUNGIN] (X1-[Orn(4R-OH,5R-OH)]T[Hyp][hTyr(3S-OH,4S-OH,3'-OSO3H)][Gln(3R-OH)][Pro(3S-OH,4S-Me)]; lactam 1-C)
8 | 0.25 (≈ 0.858 µM) | 0.5 (≈ 1.72 µM) | 0.25 (≈ 0.858 µM) | 0.5 (≈ 1.72 µM) | CN(C/C=C/C#CC(C)(C)C)Cc1cccc2ccccc12 [TERBINAFINE]
9 | 1 (≈ 2.29 µM) | 2 (≈ 4.57 µM) | 1 (≈ 2.29 µM) | 2 (≈ 4.57 µM) | C[C@@H](c1nc(-c2ccc(C#N)cc2)cs1)[C@](O)(Cn1cncn1)c1ccc(F)cc1F [RAVUCONAZOLE]
